Assay results from patent US11970494B2, “6-heteroaryloxy benzimidazoles and azabenzimidazoles as JAK2 inhibitors” (Ajax Therapeutics, Inc., priority 2021, dated 2024).

These compounds were tested against T1, Tyk2 (Homo sapiens, UniProt P29597) (assay: JAK Family Selectivity Assay: Tyk2 vs JAK2 binding affinity). Details: Kd TYK2 over Kd JAK2.
T1 construct: made in house; host or cells: T7 phage in BL21-derived E. coli or HEK-293 cells
Protocol: Provided compounds are evaluated for selectivity by comparing their JAK2 binding affinity (Kd) in the above JAK2 Binding Assay with their binding affinity (Kd) for one or more other kinases. Binding affinity for other kinases is determined as follows: Kinase-tagged T7 phage strains are prepared in an E. coli host derived from the BL21 strain. E. coli are grown to log-phase and infected with T7 phage and incubated with shaking at 32° C. until lysis. The lysates are centrifuged and filtered to remove cell debris. The remaining kinases are produced in HEK-293 cells and subsequently tagged with DNA for qPCR detection. Streptavidin-coated magnetic beads are treated with biotinylated small molecule ligands for 30 minutes at room temperature to generate affinity resins for kinase assays. The liganded beads are blocked with excess biotin and washed with blocking buffer (SeaBlock (Pierce), 1% BSA, 0.05% Tween 20, 1 mM DTT) to remove unbound ligand and to reduce non-specific binding. Binding reactions are assembled by combining kinases, liganded affinity beads, and test compounds in 1× binding buffer (20% SeaBlock, 0.17×PBS, 0.05% Tween 20, 6 mM DTT). Test compounds are prepared as 111× stocks in 100% DMSO. Kds are determined using an 11-point 3-fold compound dilution series with three DMSO control points. All compounds for Kd measurements are distributed by acoustic transfer (non-contact dispensing) in 100% DMSO. The compounds are then diluted directly into the assays such that the final concentration of DMSO is 0.9%. All reactions are performed in polypropylene 384-well plate. Each has a final volume of 0.02 ml. The assay plates are incubated at room temperature with shaking for 1 hour and the affinity beads are washed with wash buffer (1×PBS, 0.05% Tween 20). The beads are then re-suspended in elution buffer (1× PBS, 0.05% Tween 20, 0.5 μM non-biotinylated affinity ligand) and incubated at room temperature with shaking for 30 minutes. The kinase concentration in the eluates is measured by qPCR. […] In some embodiments, provided compounds may be JAK2-selective over one or more of the following kinases: JAK1, JAK3, and Tyk2.

T1 sequence (P29597 whole entry): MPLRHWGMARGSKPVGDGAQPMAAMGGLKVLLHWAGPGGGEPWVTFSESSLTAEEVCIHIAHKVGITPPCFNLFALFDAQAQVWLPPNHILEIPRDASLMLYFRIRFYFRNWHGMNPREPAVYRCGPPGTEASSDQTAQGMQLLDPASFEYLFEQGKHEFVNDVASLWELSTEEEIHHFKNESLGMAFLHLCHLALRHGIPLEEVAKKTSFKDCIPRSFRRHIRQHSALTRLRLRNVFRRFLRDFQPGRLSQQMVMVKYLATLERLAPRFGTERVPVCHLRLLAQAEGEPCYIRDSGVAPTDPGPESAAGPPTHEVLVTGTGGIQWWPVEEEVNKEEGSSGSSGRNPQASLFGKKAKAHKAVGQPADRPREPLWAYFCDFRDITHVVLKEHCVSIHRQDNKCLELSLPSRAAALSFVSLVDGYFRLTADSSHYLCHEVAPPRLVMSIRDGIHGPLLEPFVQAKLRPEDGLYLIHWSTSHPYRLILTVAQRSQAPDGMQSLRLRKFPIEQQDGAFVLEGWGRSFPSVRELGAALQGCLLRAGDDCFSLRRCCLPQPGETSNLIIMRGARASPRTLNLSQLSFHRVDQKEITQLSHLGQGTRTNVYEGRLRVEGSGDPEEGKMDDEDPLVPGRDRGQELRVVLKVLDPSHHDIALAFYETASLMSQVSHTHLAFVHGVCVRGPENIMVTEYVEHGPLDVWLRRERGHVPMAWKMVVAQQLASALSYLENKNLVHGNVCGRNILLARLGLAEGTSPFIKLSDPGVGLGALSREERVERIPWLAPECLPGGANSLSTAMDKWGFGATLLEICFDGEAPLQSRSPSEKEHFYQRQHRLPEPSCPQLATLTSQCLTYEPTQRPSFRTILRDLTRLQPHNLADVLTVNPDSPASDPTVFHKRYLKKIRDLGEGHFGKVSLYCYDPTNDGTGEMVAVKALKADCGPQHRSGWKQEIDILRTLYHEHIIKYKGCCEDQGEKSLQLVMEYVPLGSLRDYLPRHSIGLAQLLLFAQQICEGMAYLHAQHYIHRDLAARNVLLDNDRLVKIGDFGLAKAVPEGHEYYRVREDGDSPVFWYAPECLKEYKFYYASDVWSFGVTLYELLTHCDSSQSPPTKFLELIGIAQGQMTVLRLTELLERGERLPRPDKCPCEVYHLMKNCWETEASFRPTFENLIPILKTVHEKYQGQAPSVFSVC

| SMILES | TYK2/JAK2 Kd/Kd ratio |
| --- | --- |
| COC(=O)Nc1cc(Oc2cnc3nc(Nc4cc(C(F)(F)F)cn(C)c4=O)n(C)c3c2C#N)ccn1 [Example I-3, Methyl (4-((7-cyano-1-methyl-2-((1-methyl-2-oxo-5-(trifluoromethyl)-1,2-dihydropyridin-3-yl)amino)-1H-imidazo[4,5-b]pyridin-6-yl)oxy)pyridin-2-yl)carbamate] | C (Kd/Kd ratio <300 and ≥100) |
| CN(C)C(=O)Nc1cc(Oc2cnc3nc(Nc4cc(C(F)(F)F)cn(C)c4=O)n(C)c3c2C#N)ccn1 [Example I-4, 3-(4-((7-cyano-1-methyl-2-((1-methyl-2-oxo-5-(trifluoromethyl)-1,2-dihydropyridin-3-yl)amino)-1H-imidazo[4,5-b]pyridin-6-yl)oxy)pyridin-2-yl)-1,1-dimethylurea] | C (Kd/Kd ratio <300 and ≥100) |
| CO[C@@H]1CCN(C(=O)Nc2cc(Oc3cnc4nc(Nc5cc6n(n5)CCC65CCC5)n(C)c4c3C#N)ccn2)C1 [Example I-60, (R)-N-(4-((7-cyano-2-((5′,6′-dihydrospiro[cyclobutane-1,4′-pyrrolo[1,2-b]pyrazol]-2′-yl)amino)-1-methyl-1H-imidazo[4,5-b]pyridin-6-yl)oxy)pyridin-2-yl)-3-methoxypyrrolidine-1-carboxamide] | D (Kd/Kd ratio <100) |
| COC1CN(C(=O)Nc2cc(Oc3cnc4nc(Nc5cc6n(n5)CCC65CCC5)n(C)c4c3C#N)ccn2)C1 [Example I-61, N-(4-((7-cyano-2-((5′,6′-dihydrospiro[cyclobutane-1,4′-pyrrolo[1,2-b]pyrazol]-2′-yl)amino)-1-methyl-1H-imidazo[4,5-b]pyridin-6-yl)oxy)pyridin-2-yl)-3-methoxyazetidine carboxamide] | D (Kd/Kd ratio <100) |
| COCCOC(=O)Nc1cc(Oc2cnc3nc(Nc4cc5n(n4)CCC54CCC4)n(C)c3c2C#N)ccn1 [Example I-62, 2-methoxyethyl(4-((7-cyano-2-((5′,6′-dihydrospiro[cyclobutane-1,4′-pyrrolo[1,2-b]pyrazol]-2′-yl)amino)-1-methyl-1H-imidazo[4,5-b]pyridin-6-yl)oxy)pyridin-2-yl)carbamate] | C (Kd/Kd ratio <300 and ≥100) |
| COCC(=O)Nc1cc(Oc2cnc3nc(Nc4cc(C(F)(F)F)cn(C)c4=O)n(C)c3c2C#N)ccn1 [Example I-79, N-(4-((7-cyano-1-methyl-2-((1-methyl-2-oxo-5-(trifluoromethyl)-1,2-dihydropyridin-3-yl)amino)-1H-imidazo[4,5-b]pyridin-6-yl)oxy)pyridin-2-yl)-2-methoxyacetamide] | C (Kd/Kd ratio <300 and ≥100) |

The next lines start with the values.

| TYK2/JAK2 Kd/Kd ratio | SMILES |
| --- | --- |
| D (Kd/Kd ratio <100) | Cn1cc(C(F)(F)F)cc(Nc2nc3ncc(Oc4ccnc(NC(=O)N5CCC5)c4)c(C#N)c3n2C)c1=O [Example I-7, N-(4-((7-cyano-1-methyl-2-((1-methyl-2-oxo-5-(trifluoromethyl)-1,2-dihydropyridin-3-yl)amino)-1H-imidazo[4,5-b]pyridin-6-yl)oxy)pyridin-2-yl)azetidine-1-carboxamide] |
| C (Kd/Kd ratio <300 and ≥100) | CO[C@H]1CCN(C(=O)Nc2cc(Oc3cnc4nc(Nc5cc(C(F)(F)F)cn(C)c5=O)n(C)c4c3C#N)ccn2)C1 [Example I-14, (S)-N-(4-((7-cyano-1-methyl-2-((1-methyl-2-oxo-5-(trifluoromethyl)-1,2-dihydropyridin-3-yl)amino)-1H-imidazo[4,5-b]pyridin-6-yl)oxy)pyridin-2-yl)-3-methoxypyrrolidine-1-carboxamide] |
| B (Kd/Kd ratio <1000 and ≥300) | Cn1cc(C(F)(F)F)cc(Nc2nc3ncc(Oc4ccnc(NC(=O)OCCN5CCOCC5)c4)c(C#N)c3n2C)c1=O [Example I-15, 2-Morpholinoethyl(4-((7-cyano-1-methyl-2-((1-methyl-2-oxo-5-(trifluoromethyl)-1,2-dihydropyridin-3-yl)amino)-1H-imidazo[4,5-b]pyridin-6-yl)oxy)pyridin-2-yl)carbamate] |
| C (Kd/Kd ratio <300 and ≥100) | Cn1cc(C(F)(F)F)cc(Nc2nc3ncc(Oc4ccnc(NC(=O)O[C@@H]5CCOC5)c4)c(C#N)c3n2C)c1=O [Example I-18, (R)-Tetrahydrofuran-3-yl(4-((7-cyano-1-methyl-2-((1-methyl-2-oxo-5-(trifluoromethyl)-1,2-dihydropyridin-3-yl)amino)-1H-imidazo[4,5-b]pyridin-6-yl)oxy)pyridin-2-yl)carbamate] |
| C (Kd/Kd ratio <300 and ≥100) | COCC(=O)Nc1cc(Oc2cnc3nc(Nc4cc(C(F)(F)F)cn(C)c4=O)n(C)c3c2Cl)ccn1 [Example I-75, N-(4-((7-chloro-1-methyl-2-((1-methyl-2-oxo-5-(trifluoromethyl)-1,2-dihydropyridin-3-yl)amino)-1H-imidazo[4,5-b]pyridin-6-yl)oxy)pyridin-2-yl)-2-methoxyacetamide] |
| D (Kd/Kd ratio <100) | CC(=O)Nc1cc(Oc2cnc3nc(Nc4cc(C(F)(F)F)cn(C)c4=O)n(C)c3c2Cl)c(F)cn1 [Example I-88, N-(4-((7-chloro-1-methyl-2-((1-methyl-2-oxo-5-(trifluoromethyl)-1,2-dihydropyridin-3-yl)amino)-1H-imidazo[4,5-b]pyridin-6-yl)oxy)-5-fluoropyridin-2-yl)acetamide] |
| D (Kd/Kd ratio <100) | Cn1c(Nc2cc3n(n2)CCC32CCC2)nc2ncc(Oc3ccnc(NC(=O)C4CC4)c3)c(C#N)c21 [Example I-122, N-(4-((7-cyano-2-((5′,6′-dihydrospiro[cyclobutane-1,4′-pyrrolo[1,2-b]pyrazol]-2′-yl)amino)-1-methyl-1H-imidazo[4,5-b]pyridin-6-yl)oxy)pyridin-2-yl)cyclopropanecarboxamide] |
| C (Kd/Kd ratio <300 and ≥100) | CCN1CCN(Cc2ccc(Nc3nc4ccc(Oc5ccnc(NC(C)=O)c5)cc4n3C)cc2C(F)(F)F)CC1 [Example R-1, reference compound] |
